A short description of data set [1]: Lipophilicity of the compound assessed as retardation factor using hexane-ethyl acetate solvent system (5:2) on silica gel TLC plate system. To be noted: hexane-ethyl acetate (5:2). The data set is classed as physicochemical.
In a further data set the test system is Spodoptera litura. The data set can be described thus: Antifeedant activity against Spodoptera litura third-instar larvae fed on compound treated fresh sweet potato leaves by dual choice leaf disk assay. The format is functional.
The next data set relates to Daphnia magna. Put plainly: Toxicity against Daphnia magna after 12 hr post compound treatment. The format is organism-based. To be noted: in vivo.

Take `C=C(C)C1Cc2c(cc(OC)c(C(C)=O)c2OC)O1` (centres undefined): the Rf in data set [1] stood at 0.52. In the data set with Spodoptera litura, this molecule showed an ED50 of 2.8 ×10⁻⁸ mol/cm2 and a pED50 of 7.55.
Consider `C=C(C)C1Cc2c(OC)cc(OC)c(C(C)=O)c2O1` (centres undefined), for which the Rf in data set [1] was 0.24. In the data set on Spodoptera litura, this molecule returned an ED50 of 5.4 ×10⁻⁹ mol/cm2 and a pED50 of 8.27. Moreover, in the data set with Daphnia magna, the LD50 amounted to 9.1 ppm.
In the case of `C=C(C)C1Cc2cc(C(C)=O)c(OC)cc2O1` (centres undefined), the Rf in data set [1] is 0.62. In the data set on Spodoptera litura, this molecule returned an ED50 of 4.2 ×10⁻⁸ mol/cm2 and a pED50 of 7.38.
On the same counts, the results for `C=C(C)C1Cc2c(OC)c(OC)c(OC)c(C(C)=O)c2O1` (centres undefined) are 0.52, 1.6 ×10⁻⁸ mol/cm2 and 7.8.
For `COc1cc2c(c(OC)c1C(C)=O)CC(C(C)C)O2` (centres undefined), the Rf in data set [1] is listed as 0.58. In the data set on Spodoptera litura, this molecule displayed an ED50 of 7.6 ×10⁻⁸ mol/cm2 and a pED50 of 7.12.
Turning to `C=C(C)C1Cc2c(cc(OC)c(C(C)O)c2OC)O1` (centres undefined), the Rf in data set [1] came out at 0.83. Moreover, in the data set on Spodoptera litura, the ED50 amounted to 1.1 ×10⁻⁷ mol/cm2 and the pED50 is 6.96.
The like results for `C=C(C)C1Cc2ccccc2O1` (centres undefined) were, in that order, 0.92, 1.1 umol/cm2 and 5.96.
Take `C=C(C)C1Cc2c(OC)cc(OC)cc2O1` (centres undefined): the Rf in data set [1] is given as 0.82. In the data set on Spodoptera litura, the ED50 is 5.3 ×10⁻⁸ mol/cm2 and the pED50 was determined as 7.28.
On the same counts, the results for `C=C(C)C1Cc2ccc(OC)cc2O1` (centres undefined) are 0.86, 6.3 ×10⁻⁷ mol/cm2 and 6.2.
On to `C=C(C)C1Cc2cc(OC)ccc2O1` (centres undefined), for which, in data set [1], the Rf was found to be 0.84. In the data set with Spodoptera litura, this molecule showed an ED50 of 1.3 ×10⁻⁷ mol/cm2 and a pED50 of 6.89.
On to `C=C(C)C1Cc2c(cc(OC)c(OC)c2OC)O1` (centres undefined), for which, in data set [1], the Rf is 0.68. In the data set with Spodoptera litura, this molecule came in with an ED50 of 5.6 ×10⁻⁸ mol/cm2 and a pED50 of 7.25.
On to `C=C(C)C1Cc2cc(C(C)=O)ccc2O1` (racemic), for which the Rf in data set [1] was 0.61. In the data set on Spodoptera litura, this molecule returned an ED50 of 7.4 ×10⁻⁸ mol/cm2 and a pED50 of 7.13.
On the same counts, the results for `C=C(C)C1Cc2c(cc(OC)c(C(C)=O)c2O)O1` (racemic) are 0.51, 7.1 ×10⁻⁸ mol/cm2 and 7.15.
In the case of `C=C(C)c1cc2cc(C(C)=O)c(O)cc2o1` [EUPARIN], in data set [1], the Rf was 0.76. In the data set on Spodoptera litura, this molecule registered an ED50 of 1.2 ×10⁻⁹ mol/cm2 and a pED50 of 5.92.
On the same counts, the results for `C=C(C)c1cc2cc(C(C)=O)c(OC)cc2o1` [MethylEuparin] are 0.66, 6.1 ×10⁻⁸ mol/cm2 and 7.21.
The like results for `C=C(C)[C@@H]1Cc2c(cc(OC)c(C(C)=O)c2O)O1` [REMIROL] were, in that order, 0.51, 1.3 ×10⁻⁷ mol/cm2 and 6.89.

These data come from ChEMBL document CHEMBL3045302, “Structure-activity Relationship for the Insect Antifeedant Activity of Benzofuran Derivatives” (Biosci Biotechnol Biochem, 1999).
